According to PMC4741889, “Ligand-based chemoinformatic discovery of a novel small molecule inhibitor targeting CDC25 dual specificity phosphatases and displaying in vitro efficacy against melanoma cells” (Oncotarget, 2015):

Columns and labels:
Assay type in all cases: cell-based, human
CDC25A protein levels = experiment: Western blotting of CDC25A protein levels in A2058 cells; conditions: A2058, 100 μM, 2-16 h
Description: (§1) To better investigate the effect of this inhibitor at the molecular level, we evaluated if the treatment of A2058 cells with 7 affected also the protein levels of the three CDC25 forms. […] On the other hand, the protein levels of CDC25B were unaffected by treatment of A2058 cells with 7 up to 16 h.
(§2) A2058 cells were seeded into 6-well-plates (3 × 10^5 cells/plate) for 24 h at 37°C and then treated at different times with 100 μM compound 7 or 0.5% DMSO. After treatment, cells were harvested, washed with PBS and then lysed in ice-cold modified radio immunoprecipitation assay (RIPA) buffer (50 mM Tris-HCl, pH 7.4, 150 mM NaCl, 1% Nonidet P-40, 0.25% sodium deoxycholate, 1 mM Na3VO4 and 1 mM NaF), supplemented with protease inhibitors and incubated for 30 min on ice. The supernatant obtained after centrifugation at 12,000 rpm for 30 min at 4°C constituted the total protein extract. The protein concentration was determined by the method of Bradford, using bovine serum albumin (BSA) as standard. Equal amounts of total protein extracts were used for Western blot analysis. […] Membranes were then analysed by an enhanced chemiluminescence reaction, using Super Signal West Pico kit (Pierce) according to manufacturer's instruction; signals were visualized by autoradiography.

CDC25B protein levels = experiment: Western blotting of CDC25B protein levels in A2058 cells; conditions: A2058, 100 μM, up to 16 h
Description: as §1, §2

CDC25C protein levels = experiment: Western blotting of CDC25C protein levels in SAN cells; conditions: 100 μM, 1, 2 or 4 h
A2058 cells = experiment: Apoptosis, subdiploid DNA content by PI flow cytometry, A2058 cells
Source text: PI incorporation followed by flow cytometric analysis was used to detect the effect of 7 on the number of nuclei with a sub-diploid content, a typical hallmark of apoptosis. A time-dependent increase of apoptosis was evident in both A2058 and SAN cells and in particular, the effect of 7 on cell death program was already evident after 24-h treatment (Figure 7). […] To further investigate on the capacity of 7 to induce apoptosis, the enzymatic activity of caspase-3, the final effector of apoptotic program, was monitored.
[…] After each treatment, cells were harvested with trypsin, centrifuged and the pellet was resuspended in phosphate-buffered saline (PBS). For cell cycle analysis, cells were fixed with 70% (v/v) cold ethanol and stored at −20°C for 1 h. Then, cells were washed with cold PBS, centrifuged and the pellets were resuspended in 200 μL of a non-lysis solution containing 50 μg/mL PI. For the evaluation of apoptosis, cells were not fixed in ethanol and directly resuspended in 200 μL of a hypotonic lysis solution containing 50 μg/mL PI. After incubation at 4°C for 30 min, cells were analyzed with a FACScan flow cytometer (Becton Dickinson) for evaluating the distribution in cell cycle phases or the presence of nuclei with a DNA content lower than the diploid.

SAN cells = experiment: Intracellular ROS level (DCFH-DA), SAN cells; conditions: SAN, then 100 μM 7 for 4 h
Description: The high redox reactivity of quinonoid molecules, like compound 7, could greatly perturb the intracellular redox state. […] The oxidant effect of 7 was also evaluated after cell pre-treatment with two antioxidant molecules, such as N-acetyl-cysteine (NAC) and the specific inhibitor of NADPH oxidase, apocynin. To this aim, A2058 and SAN cells were pre-incubated for 1 h with 10 mM NAC or 45 min with 0.5 mM apocynin and then treated for 4 h with 100 μM compound 7. […] The cytotoxic activity of 7 could be mediated by the observed increase of ROS level.
The intracellular ROS level was monitored using the oxidation-sensitive fluorescence probe DCFH-DA. Cells were seeded into 6-well-plates (3 × 10^5 cells/plate) for 24 h at 37°C and then treated at various times with 100 μM compound 7 or 0.5% DMSO. DCFH-DA was added in the dark at 10 μM final concentration 30-min before the end of each incubation; then, cells were collected, washed in PBS, and finally resuspended in 500 μL PBS for fluorimetric analysis. Measurements were realized in a Cary Eclipse fluorescence spectrophotometer (Varian); excitation and emission wavelengths were set at 485 nm and 530 nm, respectively; both excitation and emission slits were set at 10 nm. The effect of 7 on ROS production was also estimated after pretreatment of cells with 10 mM NAC for 1 h.
Supplementary Figure S5: ROS production and their involvement in the apoptotic process of SAN cells, as induced by treatment with compound 7. A. Time-dependent measurement of ROS production. Cells were incubated with 0.5% DMSO (open bars) or 100 μM compound 7 (black bars) and then the intracellular ROS level was measured. B. Effect of antioxidant molecules on ROS production. The ROS level was also measured in cells untreated or pretreated with NAC or apocynin after a 4-h incubation with DMSO or 7. C. Effect of NAC on apoptosis. The PI incorporation was evaluated in cells untreated or pretreated with NAC after a 48-h incubation with DMSO or 7. ROS production was expressed as a.u., and apoptosis as a percentage. […]

Structure (SMILES): O=C(O)C1CCCCC1c1c2ccc(=O)cc-2oc2cc(O)ccc12 (centres unmarked) [Compound 7, 2-(6-hydroxy-3-oxo-3H-xanthen-9-yl)cyclohexanecarboxylic acid]
- CDC25A protein levels (CDC25A protein levels): early reduction of the CDC25A protein levels up to 4 h
- CDC25B protein levels (CDC25B protein levels): unaffected
- CDC25C protein levels (CDC25C protein levels): earlier decrease of CDC25C protein levels
- level of apoptosis caused by 7 in the presence of Z-VAD-FMK (A2058 cells; A2058, 100 μM 7 + 100 μM Z-VAD-FMK, 48 h): significantly decreased
- apoptosis (nuclei with sub-diploid content) (A2058 cells; A2058, 100 μM, 24-72 h): increase of apoptosis became significant at 48 h
- apoptosis after NAC pre-treatment (A2058 cells; A2058, NAC pre-treatment, 100 μM 7, 48 h): in a great part reverted
- increase of ROS level after apocynin pre-treatment (SAN cells; 0.5 mM apocynin 45 min): did not prevent the increase of ROS level
- increase of ROS level after NAC pre-treatment (SAN cells; 10 mM NAC 1 h): prevented by the NAC treatment
